In patent publication US11285156B2, “Substituted piperazines as KRAS G12C inhibitors” (Amgen Inc., priority 2018, dated 2022):
Like-named read-outs stand apart in the source and are kept apart here.

Assays:
[1] = target: GDP-bound KRAS protein (aa 1-169), containing both G12C and C118A amino acid substitutions (Homo sapiens (Human), UniProt P01116, C118A/G12C); test: Coupled nucleotide exchange assay (SOS-mediated nucleotide exchange, AlphaScreen); format: biochemical; details: 5 min compound pre-incubation; for IC50: read-out: Coupled exchange IC50 (5 min; μM)
Chain of GDP-bound KRAS protein (aa 1-169), containing both G12C and C118A amino acid substitutions (P01116 other isoform, or with tags, fused parts or gaps G12C/C118A): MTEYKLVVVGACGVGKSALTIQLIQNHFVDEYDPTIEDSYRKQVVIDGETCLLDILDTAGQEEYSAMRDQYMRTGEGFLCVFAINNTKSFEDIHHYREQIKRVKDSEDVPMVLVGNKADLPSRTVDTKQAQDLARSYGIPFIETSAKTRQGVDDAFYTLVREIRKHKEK

[2] = tested on: Phosphorylation of ERK1/2 in A549 cells; test: Phospho-ERK1/2 MSD assay in A549 cells; format: cell-based; details: read-out: p-ERK IC50 (2 h, A549; μM), 2 h compound treatment, A549 cells, EGF stimulated
Summary of the method: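 Readout: MSD phospho-ERK1/2 signal after compound (2 or 4 h) and 10 min EGF stimulation at 10 ng/mL.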

[3] = tested on: Phosphorylation of ERK1/2 in MIA PaCa-2 cells; test: Phospho-ERK1/2 MSD assay in MIA PaCa-2 cells; format: cell-based; details: read-out: p-ERK IC50 (2 h, MiaPaCa-2; μM), 2 h compound treatment, MIA PaCa-2 cells, EGF stimulated
Summary of the method: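 Phospho-ERK1/2 measured by MSD electrochemiluminescence kit in RIPA lysates of MIA PaCa-2 cells. Cells were treated with compound titrations for 2 or 4 h at 37 °C, 5% CO2, followed by a 10 min pulse of 10 ng/mL EGF.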

Row | SMILES | IC50 [1] [µM] | IC50 ([2]; Homo sapiens, A549, 2 h) [µM] | IC50 ([3]; Homo sapiens, MIA PaCa-2, 2 h) [µM] | IC50 [3] [µM] | Coupled exchange IC50 (5 min; μM) [1] [µM] | IC50 [2] [µM]
1 | C=CC(=O)N1C[C@H](C)N(c2nc(=O)n(-c3c(C(C)C)nc(N4CCOCC4)nc3C(C)C)c3nc(-c4ccccc4F)c(Cl)cc23)C[C@H]1C [Example 107-3, 6-Chloro-1-(4,6-diisopropyl-2-morpholino-pyrimidin-5-yl)-4-[(2S,5R)-2,5-dimethyl-4-prop-2-enoyl-piperazin-1-yl]-7-(2-fluorophenyl)pyrido [2,3-d]pyrimidin-2-one] | 0.114 | 3.73 | 0.144 | – | – | –
2 | C=CC(=O)N1C[C@H](C)N(c2nc(=O)n(-c3c(C(C)C)nc(NCCN(C)C)nc3C(C)C)c3nc(-c4ccccc4F)c(Cl)cc23)C[C@H]1C [Example 107-4, 6-Chloro-1-[2-[2-(dimethylamino)ethylamino]-4,6-diisopropyl-pyrimidin-5-yl]-4-[(2S,5R)-2,5-dimethyl-4-prop-2-enoyl-piperazin-1-yl]-7-(2-fluorophenyl)pyrido [2,3-d]pyrimidin-2-one] | 0.051 | > 7.5 | 0.085 | – | – | –
3 | C=CC(=O)N1C[C@H](C)N(c2nc(=O)n(-c3c(C(C)C)nc(N4CCC4)nc3C(C)C)c3nc(-c4ccccc4F)c(Cl)cc23)C[C@H]1C [Example 107-5, 1-[2-(Azetidin-1-yl)-4,6-diisopropyl-pyrimidin-5-yl]-6-chloro-4-[(2S,5R)-2,5-dimethyl-4-prop-2-enoyl-piperazin-1-yl]-7-(2-fluorophenyl)pyrido [2,3-d]pyrimidin-2-one] | 0.103 | 3.25 | 0.3 | – | – | –
4 | C=CC(=O)N1C[C@H](C)N(c2nc(=O)n(-c3c(C(C)C)ncnc3C3CC3)c3nc(-c4ccccc4F)c(Cl)cc23)C[C@H]1C [Example 108-1, 4-((2S,5R)-4-Acryloyl-2,5-dimethylpiperazin-1-yl)-6-chloro-1-(4-cyclopropyl-6-isopropylpyrimidin-5-yl)-7-(2-fluorophenyl)pyrido[2,3-d]pyrimidin-2(1H)-one] | 0.009 | > 7.5 | – | 0.039 | – | –
5 | C=CC(=O)N1C[C@H](C)N(c2nc(=O)n(-c3c(C(C)C)ncnc3C3CC3)c3nc(-c4ccccc4C)c(Cl)cc23)C[C@H]1C [Example 108-2, 6-Chloro-1-(4-cyclopropyl-6-isopropyl-pyrimidin-5-yl)-4-[(2S,5R)-2,5-dimethyl-4-prop-2-enoyl-piperazin-1-yl]-7-(o-tolyl)pyrido[2,3-d]pyrimidin-2-one] | 0.049 | > 7.5 | – | 0.032 | – | –
6 | C=CC(=O)N1C[C@H](C)N(c2nc(=O)n(-c3c(CC)ncnc3C(C)C)c3nc(-c4ccccc4F)c(Cl)cc23)C[C@H]1C [Example 109-1, 4-((2S,5R)-4-Acryloyl-2,5-dimethylpiperazin-1-yl)-6-chloro-1-(4-ethyl-6-isopropylpyrimidin-5-yl)-7-(2-fluorophenyl)pyrido[2,3-d]pyrimidin-2(1H)-one] | 0.194 | > 7.5 | 0.052 | – | – | –
7 | C=CC(=O)N1C[C@H](C)N(c2nc(=O)n(-c3c(CC)ncnc3C(C)C)c3nc(-c4ccccc4C)c(Cl)cc23)C[C@H]1C [Example 109-2, 6-Chloro-4-[(2S,5R)-2,5-dimethyl-4-prop-2-enoyl-piperazin-1-yl]-1-(4-ethyl-6-isopropyl-pyrimidin-5-yl)-7-(o-tolyl)pyrido[2,3-d]pyrimidin-2-one] | – | > 7.5 | 0.098 | – | 0.107 | –
8 | C=CC(=O)N1C[C@H](C)N(c2nc(=O)n(CC(C)(C)C)c3nc(-c4ccccc4F)c(Cl)cc23)C[C@H]1C [Example 110-1, 4-((2S,5R)-4-Acryloyl-2,5-dimethylpiperazin-1-yl)-6-chloro-7-(2-fluorophenyl)-1-neopentylpyrido[2,3-d]pyrimidin-2(1H)-one] | 0.57 | > 7.5 | 1.12 | – | – | –
9 | C=CC(=O)N1C[C@H](C)N(c2nc(=O)n(-c3c(C)cc(CN(C)C)nc3C(C)C)c3nc(-c4ccccc4F)c(Cl)cc23)C[C@H]1C [Example 121-1, 4-((2S,5R)-4-Acryloyl-2,5-dimethylpiperazin-1-yl)-6-chloro-1-(6-((dimethylamino)methyl)-2-isopropyl-4-methylpyridin-3-yl)-7-(2-fluorophenyl)pyrido[2,3-d]pyrimidin-2(1H)-one] | 0.195 | > 7.5 | 0.086 | – | – | –
10 | C=CC(=O)N1C[C@H](C)N(c2nc(=O)n(-c3c(C)cc(CN4CCCC4)nc3C(C)C)c3nc(-c4ccccc4F)c(Cl)cc23)C[C@H]1C [Example 121-2, 6-Chloro-4-[(2S,5R)-2,5-dimethyl-4-prop-2-enoyl-piperazin-1-yl]-7-(2-fluorophenyl)-1-[2-isopropyl-4-methyl-6-(pyrrolidin-1-ylmethyl)-3-pyridyl]pyrido[2,3-d]pyrimidin-2-one] | 0.096 | > 7.5 | 0.081 | – | – | –
11 | C=CC(=O)N1[C@H](C)CN(c2nc(=O)n(-c3c(C(C)C)ccnc3C(C)C)c3nc(-c4ccccc4C)c(Cl)cc23)C[C@@H]1C [Example 124-11, 6-Chloro-1-(2,4-diisopropyl-3-pyridyl)-4-[(3R,5S)-3,5-dimethyl-4-prop-2-enoyl-piperazin-1-yl]-7-(o-tolyl)pyrido[2,3-d]pyrimidin-2-one] | 0.075 | > 7.5 | 0.098 | – | – | –
12 | C=CC(=O)N1C[C@H](C)N(c2nc(=O)n(-c3c(C(C)C)ccnc3C(C)C)c3nc(-c4ccccc4F)c(Cl)cc23)C[C@H]1C [Example 125-1, 4-((2S,5R)-4-Acryloyl-2,5-dimethylpiperazin-1-yl)-6-chloro-1-(2,4-diisopropylpyridin-3-yl)-7-(2-fluorophenyl)pyrido[2,3-d]pyrimidin-2(1H)-one] | 0.028 | – | – | 0.055 | – | > 7.5
13 | C=CC(=O)N1[C@H](C)CN(c2nc(=O)n(-c3c(C(C)C)ccnc3C(C)C)c3nc(-c4ccccc4C)c(Cl)cc23)C[C@@H]1C [Example 125-11, 6-Chloro-1-(2,4-diisopropyl-3-pyridyl)-4-[(3R,5S)-3,5-dimethyl-4-prop-2-enoyl-piperazin-1-yl]-7-(o-tolyl)pyrido[2,3-d]pyrimidin-2-one] | 0.091 | – | – | 0.187 | – | > 7.5
14 | C=CC(=O)N1C[C@H](C)N(c2nc(=O)n(-c3c(C)ccnc3C(C)C)c3nc(-c4cccc(F)c4NC(C)=O)c(Cl)cc23)C[C@H]1C [Example 129-12, N[2-(6-Chloro-4-[(2S,5R)-2,5-dimethyl-4-prop-2-enoyl-piperazin-1-yl]-1-(2-isopropyl-4-methyl-3-pvridyl)-2-oxo-pyrido[2,3-d]pyrimidin-7-yl]-6-fluoro-phenyl]acetamide] | 0.167 | > 7.5 | 0.39 | – | – | –
15 | C=CC(=O)N1C[C@H](C)N(c2nc(=O)n(-c3c(CN4CCCC4)ccnc3C(C)C)c3nc(-c4ccccc4C(C)C)c(Cl)cc23)C[C@H]1C [Example 141-3, 6-Chloro-4-[(2S,5R)-2,5-dimethyl-4-prop-2-enoyl-piperazin-1-yl]-7-(2-isopropylphenyl)-1-[2-isopropyl-4-(pyrrolidin-1-ylmethyl)-3-pyridyl]pyrido[2,3-d]pyrimidin-2-one] | 0.197 | > 7.5 | 0.331 | – | – | –
16 | C=CC(=O)N1CCN(c2nc(=O)n(CC(C)(C)C)c3nc(-c4ccccc4F)c(Cl)cc23)CC1CC#N (stereo not drawn) [Example 145-1, 2-[4-[6-Chloro-1-(2,2-dimethylpropyl)-7-(2-fluorophenyl)-2-oxo-pyrido[2,3-d]pyrimidin-4-yl]-1-prop-2-enoyl-piperazin-2-yl]acetonitrile] | 2.07 | 5.75 | – | 10 | – | –
